The target in data set [1] is DR4Dw4 (DRA1*0101 DRB1*0401) (Homo sapiens, UniProt P01903+P01911, A100K/A169T/F76Y/I96L/K127E/L162R/M171V/N62H/P40V/Q125Y/R42H/S133A/S149N/S66Y/V115G/V209L/W38E). The data set can be described thus: Competitive binding to MHC-II protein DR4Dw4. The method, boiled down:
(§1)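 Each MHC-II allele incubated with compound 16 hours at room temperature in duplicate; controls lacked compound, or both compound and MHC-II. Complexes captured 2 h at 4 °C, bound biotinylated peptide detected via europium-streptavidin and DELFIA enhancement, time-resolved fluorescence read at ex 340/em 613 (615) nm.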

The target in data set [2] is DR4Dw14 (DRA1*0101 DRB1*0404) (Homo sapiens, UniProt P01903+P01911, A100R/A169T/F76Y/I96L/K127E/L162R/M171V/N62H/P40V/Q125Y/R42H/S133A/S149N/S66Y/V209L/W38E). Nature of the data set: Competitive binding to MHC-II protein DR4Dw14. The settings on record: 0404; read-out: Protein binding IC50 (nM) 0404. The method, boiled down:
as §1

Data set [3] deals with T1, Priess (DR4Dw4: DRA1*0101 DRB1*0401) cells (Homo sapiens, UniProt P01903+P01911, A100K/A169T/F76Y/I96L/K127E/L162R/M171V/N62H/P40V/Q125Y/R42H/S133A/S149N/S66Y/V115G/V209L/W38E).
T1 construct: MHC II Proteins Expressed on PRIESS and LG2 Cells; endogenous in cells; host or cells: Priess cells
The data set can be described thus: Competitive binding to MHC II proteins expressed on Priess cells. Type of data set: cell-based. In short, it runs like this:
(§2)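 LG2 or Priess cells incubated 4 h at 37° C, 6% CO2 in 1% FCS with 10-fold compound dilutions (series 16 nM-1615 μM) and biotinylated-detectable indicator peptide (16 μM solution added). Lysates captured 2 h at 4° C; bound peptide detected via europium-streptavidin time-resolved fluorescence (ex 340, em 613 nm).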

For data set [4], the target named is T2, LG2 (DR1: DRA1*0101 DRB1*0101) cells (Homo sapiens, UniProt P01903+P01911, A100R/D57E/F55L/F60I/F76Y/I96L/L162R/M171V/P40L/Q125E/R42F/V115G/Y59C).
T2 construct: MHC II Proteins Expressed on PRIESS and LG2 Cells; endogenous in cells; host or cells: LG2 cells
The data set can be described thus: Competitive binding to MHC II proteins expressed on LG2 cells. The settings on record: Cell binding IC50 (uM) LG2 (0101), LG2 (0101). Type of data set: cell-based. In short, it runs like this: as §2

Data set [5] is described as follows: Stability of compounds in rat blood plasma. The class given is in vitro ADME. In short, it runs like this: (§3)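 Compounds at 5 μM final in rat, mouse or human plasma, incubated at 37 °C and sampled at 0, 6 and 24 h. Proteins precipitated with acetonitrile and the supernatant dried and reconstituted in 50% acetonitrile/0.1% TFA. PBS controls run for unstable compounds.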

Data set [6] is described as follows: Stability of compounds in human blood plasma. The class given is in vitro ADME. In short, it runs like this: as §3
Data set [7] concerns the target Cathepsin B1 (EC 3.4.22.1 from bovine spleen) (Bos taurus, UniProt P07688). Particulars: Cathepsin B, 4 h.

pIC50: −log10 of the molar value. Numbered stars: 1 amine (or outer) side, 2 acyl side, 3 side chain; on linkers, the order of the positions; unused ones are H or OH. Square brackets hold non-standard residues; d marks the D form. Peptide text beside a SMILES is read from it. * marks the point of attachment. ξ: configuration not given here. Gly(1-amidinopiperidin-4-yl) = N=C(N)N1CCC([C@H](N)C(=O)O)CC1; X1 = CC(C)c1oc([C@H](CO)N[*:1])nc1C(=O)[*:2]; Pro(3R-Ph) = O=C(O)[C@H]1NCC[C@@H]1c1ccccc1; Tic = O=C(O)[C@@H]1Cc2ccccc2CN1; Cha = N[C@@H](CC1CCCCC1)C(=O)O; NMe(benzyl) = CN(Cc1ccccc1)*; ξDisc = O=C(O)C1NCc2ccccc21; Nle = CCCC[C@H](N)C(=O)O

Usually pIC50 stands for the negative decadic logarithm of the IC50, by convention in mol/L. Higher therefore signals a small IC50. Broadly, the IC50 is the concentration at which inhibition is half-maximal. Compound `CCCC[C@H](NC(=O)C1c2ccccc2CN1C(=O)[C@H](CCCNC(=N)N)NC(=O)[C@H](CC1CCCCC1)NC(C)=O)C(=O)N(C)Cc1ccccc1` (stereo partly drawn) [Compound P72-1, Ac-Cha-Arg-Disc-Nle-N(Me)Bn] (Ac-[Cha]R[ξDisc][Nle]-{NMe(benzyl)}) had a pIC50 in data set [1] of 5.28. The IC50 in data set [2] stood at 1700 nM. Besides, in data set [3], the pIC50 is 5.12. The IC50 in data set [4] came out at 12 µM. Also, in data set [5], the “Stability (Arbitrary units) Rat 6 h” value came out at 80 Arbitrary units and the “Stability (Arbitrary units) Rat 24 h” value is listed as 67 Arbitrary units. In data set [6], the “Stability (Arbitrary units) Human 6 h” value came out at 99 Arbitrary units and the “Stability (Arbitrary units) Human 24 h” value stood at 99 Arbitrary units. Further, in data set [7], the “Stability (Arbitrary units) Cath B 4 h” value is 98 Arbitrary units.
Take `CCCC[C@H](NC(=O)[C@@H]1Cc2ccccc2CN1C(=O)[C@@H](NC(=O)[C@H](CC1CCCCC1)NC(C)=O)C1CCN(C(=N)N)CC1)C(=O)N(C)Cc1ccccc1` [Compound P74, Ac-Cha-Gpg-Tic-Nle-N(Me)Bn] (Ac-[Cha][Gly(1-amidinopiperidin-4-yl)][Tic][Nle]-{NMe(benzyl)}): the pIC50 in data set [1] was 5.47; in data set [3], 5.04. Also, the IC50 in data set [2] turned out to be 2200 nM; in data set [4] it was 6.1 µM. In addition, the “binding to MHC class II protein expressed on the surface of Priess cells” value in data set [3] (compared to the Arg-containing equivalent) is on record as “Improved binding”. In addition, in data set [5], the “Stability (Arbitrary units) Rat 6 h” value worked out at 91 Arbitrary units. The “Stability (Arbitrary units) Rat 24 h” value in data set [5] is given as 71 Arbitrary units. In data set [6], the “Stability (Arbitrary units) Human 6 h” value turned out to be 114 Arbitrary units. For the same compound, in data set [6], the “Stability (Arbitrary units) Human 24 h” value was 125 Arbitrary units. In addition, the “Stability (Arbitrary units) Cath B 4 h” value in data set [7] was determined as 105 Arbitrary units.
In data set [1], `CCCC[C@H](NC(=O)C1c2ccccc2CN1C(=O)[C@@H](NC(=O)[C@H](CC1CCCCC1)NC(C)=O)C1CCN(C(=N)N)CC1)C(=O)N1CC[C@H](c2ccccc2)[C@H]1C(=O)N[C@@H](CO)c1nc(C(=O)N(C)C)c(C(C)C)o1` (stereo partly drawn) [Compound P81-1] (Ac-[Cha][Gly(1-amidinopiperidin-4-yl)][ξDisc][Nle][Pro(3R-Ph)][X1]-NMe2) had a pIC50 of 6.59. For the same compound, the IC50 in data set [2] is 90 nM. The same compound gave a pIC50 in data set [3] of 5.47. For the same compound, the IC50 in data set [4] is 5 µM. Besides, in data set [5], the “Stability (Arbitrary units) Rat 6 h” value was determined as 151 Arbitrary units and the “Stability (Arbitrary units) Rat 24 h” value worked out at 112 Arbitrary units. In addition, in data set [6], the “Stability (Arbitrary units) Human 6 h” value stood at 151 Arbitrary units and the “Stability (Arbitrary units) Human 24 h” value was determined as 162 Arbitrary units. In addition, the “Stability (Arbitrary units) Cath B 4 h” value in data set [7] was 105 Arbitrary units.

(Values after patent US7629318B2, “Immunosuppressant compounds, methods and uses related thereto” (priority 2002, dated 2009).)
